# The source made the active and inactive calls.
# Columns and labels:
# [1] = molecular target: Serine/threonine-protein phosphatase PP1-alpha catalytic subunit (Homo sapiens, UniProt P62136); assay: inhibition of protein phosphatase 1 activity – biochemical, fluorescence, dose response (AID 2394)
# [2] = molecular target: Serine/threonine-protein phosphatase (Homo sapiens, UniProt Q9BPW0); assay: inhibition of protein phosphatase 5 activity – biochemical, fluorescence, dose response (AID 2395)
# [3] = molecular target: T1, Tyrosyl-DNA phosphodiesterase 2 (Homo sapiens, UniProt O95551); assay: potency against TDP2 phosphodiesterase activity – biochemical, epi absorbance, IC50, dose response (AID 743297)
# T1 sequence (O95551 whole entry): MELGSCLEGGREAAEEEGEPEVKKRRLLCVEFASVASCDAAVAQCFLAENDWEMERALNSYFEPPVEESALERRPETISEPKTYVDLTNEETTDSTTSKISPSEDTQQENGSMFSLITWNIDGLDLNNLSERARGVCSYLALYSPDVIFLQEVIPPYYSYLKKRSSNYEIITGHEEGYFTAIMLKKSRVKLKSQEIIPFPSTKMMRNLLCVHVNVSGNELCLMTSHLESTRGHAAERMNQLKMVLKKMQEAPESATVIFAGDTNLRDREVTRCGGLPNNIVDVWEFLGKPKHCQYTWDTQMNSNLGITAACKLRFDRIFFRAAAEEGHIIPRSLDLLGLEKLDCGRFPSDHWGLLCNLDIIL
# [4] = Vero E6 cell cytotoxicity, dose response, cytotoxicity control for non-replicating M. tuberculosis project, secondary assay (AID 492998); format: functional, VeroE6; details: Vero C1008
# CHO = CHO cell viability loss, potency – luminescence, cytotoxicity control for TLR9-MyD88 binding inhibitor project, dose response (AID 588339); format: functional, cell-based, hamster; details: Cricetulus griseus;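 further: CHO cells stably coexpressing TLR9 and MyD88 fusions from primary screen; compound exposure lasted 48 hours before viability readout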
# [5] = molecular target: T2, Replicative DNA helicase DnaB (Mycobacterium tuberculosis, UniProt P9WMR3); assay: DnaB intein splicing inhibitors, dose response, biochemical, cell-free fluorescence (AID 449749); format: functional
# T2 sequence (P9WMR3 whole entry): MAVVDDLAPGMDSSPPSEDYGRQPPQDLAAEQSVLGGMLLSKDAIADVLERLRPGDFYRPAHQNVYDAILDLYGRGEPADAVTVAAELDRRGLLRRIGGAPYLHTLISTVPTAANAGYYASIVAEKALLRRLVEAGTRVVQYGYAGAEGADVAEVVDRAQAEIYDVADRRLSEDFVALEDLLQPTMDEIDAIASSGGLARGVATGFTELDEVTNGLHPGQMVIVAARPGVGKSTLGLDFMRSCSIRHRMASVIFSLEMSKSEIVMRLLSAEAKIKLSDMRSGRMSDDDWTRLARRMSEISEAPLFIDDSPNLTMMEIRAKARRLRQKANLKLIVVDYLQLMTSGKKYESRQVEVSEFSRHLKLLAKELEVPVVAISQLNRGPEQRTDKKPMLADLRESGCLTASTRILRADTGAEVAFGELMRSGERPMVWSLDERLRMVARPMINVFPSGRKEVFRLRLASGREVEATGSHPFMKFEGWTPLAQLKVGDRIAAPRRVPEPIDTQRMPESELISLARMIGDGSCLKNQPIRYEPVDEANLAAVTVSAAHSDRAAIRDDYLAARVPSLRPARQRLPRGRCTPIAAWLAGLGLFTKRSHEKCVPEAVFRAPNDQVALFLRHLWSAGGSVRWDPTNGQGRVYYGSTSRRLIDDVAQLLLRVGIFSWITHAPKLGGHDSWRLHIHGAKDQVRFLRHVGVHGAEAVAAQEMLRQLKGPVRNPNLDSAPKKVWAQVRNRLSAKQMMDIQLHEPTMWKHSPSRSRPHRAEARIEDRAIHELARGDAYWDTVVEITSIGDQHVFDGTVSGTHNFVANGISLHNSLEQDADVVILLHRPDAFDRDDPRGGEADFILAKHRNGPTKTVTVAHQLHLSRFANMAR
# Protein RecA = molecular target: T3, Protein RecA (Mycobacterium tuberculosis, UniProt P9WHJ3); assay: Fluorescence Cell-Free Homogeneous Dose Retest to Identify Inhibitors of RecA-Intein Splicing Activity. [Related pubchem assays (depositor defined):AID2097, AID2223, AID489010, AID492950]; format: functional
# T3 sequence (P9WHJ3 whole entry): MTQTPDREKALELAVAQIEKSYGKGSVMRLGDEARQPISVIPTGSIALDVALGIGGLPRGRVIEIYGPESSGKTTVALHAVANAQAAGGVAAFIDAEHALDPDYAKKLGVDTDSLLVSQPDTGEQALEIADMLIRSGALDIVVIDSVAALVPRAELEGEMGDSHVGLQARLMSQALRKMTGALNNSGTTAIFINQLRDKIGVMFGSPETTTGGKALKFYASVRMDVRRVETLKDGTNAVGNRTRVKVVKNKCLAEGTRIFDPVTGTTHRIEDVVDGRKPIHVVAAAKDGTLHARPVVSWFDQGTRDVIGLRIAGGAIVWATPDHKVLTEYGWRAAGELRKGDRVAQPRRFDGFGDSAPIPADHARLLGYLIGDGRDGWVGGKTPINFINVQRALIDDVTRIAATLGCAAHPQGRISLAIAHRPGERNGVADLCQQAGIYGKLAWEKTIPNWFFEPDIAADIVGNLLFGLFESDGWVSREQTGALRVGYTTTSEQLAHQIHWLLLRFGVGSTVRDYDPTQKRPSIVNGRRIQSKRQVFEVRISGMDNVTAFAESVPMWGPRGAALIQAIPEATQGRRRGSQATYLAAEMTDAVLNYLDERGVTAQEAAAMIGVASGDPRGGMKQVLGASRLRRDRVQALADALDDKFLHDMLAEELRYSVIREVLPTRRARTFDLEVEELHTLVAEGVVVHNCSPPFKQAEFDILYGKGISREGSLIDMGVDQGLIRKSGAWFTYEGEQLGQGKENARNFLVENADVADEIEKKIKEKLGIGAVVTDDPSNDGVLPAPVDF
# [6] = non-specific 3'UTR reporter inhibition in Clone20-Shn3RL – cell-based, Renilla luciferase, cherry-picked, counter-screen for Shn3 inhibitor project, dose response (AID 624133); format: functional
# [7] = viability loss in HEK293T cells – cell-based, cherry-picks, cytotoxicity control for HIV Vif inhibitor project, dose response (AID 652208); format: functional
# Paired box protein Pax-8 = Paired box protein Pax-8 (Homo sapiens, UniProt Q06710); assay: PAX8 transcriptional activity inhibition in RMG-I – RMG-I cells, luciferase, cherry-pick, dose response (AID 687027); format: functional, cell-based;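 further: luciferase reporter driven by Pax8 target thyroperoxidase promoter measured by SteadyGlo luminescence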
# Paired box protein Pax-8, sequence (Q06710 whole entry): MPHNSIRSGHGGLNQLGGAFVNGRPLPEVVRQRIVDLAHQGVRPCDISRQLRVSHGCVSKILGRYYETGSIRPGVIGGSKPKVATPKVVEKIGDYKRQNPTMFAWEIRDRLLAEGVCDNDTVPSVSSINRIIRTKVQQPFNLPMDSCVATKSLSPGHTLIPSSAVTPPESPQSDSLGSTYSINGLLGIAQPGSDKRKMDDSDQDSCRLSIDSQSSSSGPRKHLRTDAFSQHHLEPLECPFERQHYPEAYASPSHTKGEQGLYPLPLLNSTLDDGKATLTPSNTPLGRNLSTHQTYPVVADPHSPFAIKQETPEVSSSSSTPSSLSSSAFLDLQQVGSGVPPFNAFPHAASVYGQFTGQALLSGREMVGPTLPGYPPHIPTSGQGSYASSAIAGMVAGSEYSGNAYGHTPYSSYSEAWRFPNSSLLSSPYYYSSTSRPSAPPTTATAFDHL
# Serine/threonine-protein phosphatase, sequence (Q9BPW0 whole entry): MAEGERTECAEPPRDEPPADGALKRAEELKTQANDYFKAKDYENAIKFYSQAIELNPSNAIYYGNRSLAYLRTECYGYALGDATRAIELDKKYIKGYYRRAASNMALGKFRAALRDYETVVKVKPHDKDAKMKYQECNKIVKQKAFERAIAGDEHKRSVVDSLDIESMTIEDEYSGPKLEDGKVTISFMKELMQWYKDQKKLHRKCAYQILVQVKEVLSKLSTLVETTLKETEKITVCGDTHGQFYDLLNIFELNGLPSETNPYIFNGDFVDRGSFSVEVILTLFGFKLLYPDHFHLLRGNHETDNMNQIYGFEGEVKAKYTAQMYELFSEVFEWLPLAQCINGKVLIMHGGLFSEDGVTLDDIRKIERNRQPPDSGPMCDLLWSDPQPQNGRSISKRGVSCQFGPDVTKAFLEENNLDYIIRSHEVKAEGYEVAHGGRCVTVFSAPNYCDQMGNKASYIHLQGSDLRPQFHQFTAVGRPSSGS
# Serine/threonine-protein phosphatase PP1-alpha catalytic subunit, sequence (P62136 whole entry): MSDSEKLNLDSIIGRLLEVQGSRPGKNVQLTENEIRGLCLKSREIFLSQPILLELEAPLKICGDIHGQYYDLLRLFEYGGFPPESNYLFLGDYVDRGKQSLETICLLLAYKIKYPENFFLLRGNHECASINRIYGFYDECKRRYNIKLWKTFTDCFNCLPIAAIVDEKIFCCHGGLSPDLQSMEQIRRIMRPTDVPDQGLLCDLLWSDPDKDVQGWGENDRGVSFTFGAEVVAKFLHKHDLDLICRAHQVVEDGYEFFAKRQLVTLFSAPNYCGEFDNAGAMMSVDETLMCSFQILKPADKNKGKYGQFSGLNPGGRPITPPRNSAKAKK
smiles,measurement,setting,value
O=C(NC1(O)C(=O)c2ccccc2C1=O)c1ccc(C(F)(F)F)cc1,IC50,[1],> 67 µM (not active)
same,IC50,[2],> 0.828 µM (active)
same,IC50,[3],3.85 µM (active)
Cn1c(=O)[nH]c(=O)c2c1nc([N+](=O)[O-])n2Cc1ccccc1,CC50,[4],6.75 µM (active)
same,IC50,CHO,2.23 µM (active)
same,AC50,[5],26.2 µM (active)
same,EC50,Protein RecA,5.87 µM (active)
same,AC50,[6],5.91 µM (active)
same,AC50,[7],4.52 µM (active)
same,AC50,Paired box protein Pax-8,3.81 µM (active)
O=C(NC1(O)C(=O)c2ccccc2C1=O)c1c(Cl)cccc1Cl,IC50,[1],> 67 µM (not active)
same,IC50,[2],> 2.48 µM (active)
same,AC50,[5],17.3 µM (active)
same,EC50,Protein RecA,28.6 µM (active)
same,IC50,[3],4.2 µM (active)
CCN(c1ccccc1)c1cc2ccccc2c(=O)[nH]1,AC50,[5],> 380 µM (inactive)
same,EC50,Protein RecA,> 380 µM (inactive)

# Source: ChEMBL document CHEMBL1201862, “PubChem BioAssay data set” (2004)
